Measurements reported in patent publication US20250034135A1, “ANTI-APOPTOTIC PROTEIN BCL-2 INHIBITOR, PHARMACEUTICAL COMPOSITION AND USES THEREOF” (HANGZHOU HEALZEN THERAPEUTICS CO., LTD., priority 2021, published 2025).

The compounds below were run against BCL2 (Homo sapiens (Human), UniProt P10415) (assay: Molecular level activity test of anti-apoptotic protein BCL2 (HTRF, binding to Bim peptide)). Details: HTRF, binding of BCL2 to Bim peptide; read-out: BCL2 nM (inhibitory activity, IC50).
Summary of the method: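 HTRF readout; His-BCL2 + biotin-BIM peptide + cpd (2% DMSO in compound addition), 1 h; then anti-His + SA-XL665 detection reagents, 4 h RT.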

Chain of BCL2 (P10415 whole entry): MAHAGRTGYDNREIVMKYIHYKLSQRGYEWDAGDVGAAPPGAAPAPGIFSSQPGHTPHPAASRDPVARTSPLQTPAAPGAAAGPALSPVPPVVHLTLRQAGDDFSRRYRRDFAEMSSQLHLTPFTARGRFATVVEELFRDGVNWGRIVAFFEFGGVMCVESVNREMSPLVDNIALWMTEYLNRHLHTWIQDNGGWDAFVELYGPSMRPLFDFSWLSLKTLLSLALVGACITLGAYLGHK

| Structure (SMILES) | IC50 [nM] |
| --- | --- |
| COc1ccc(CN2CCN(C3CC4(CCN(c5cc(Oc6cnc7[nH]ccc7c6)c(C(=O)NS(=O)(=O)c6cc([N+](=O)[O-])c(NCC7(F)CCOCC7)c7c6OCO7)cc5F)CC4)C3)[C@H](c3ccccc3C(C)C)C2)c(F)n1 [compound 130, (R)-2-((1H-pyrrolo[2,3-b]pyrid-5-yl)oxy)-5-fluoro-4-(2-(4-((2-fluoro-6-methoxypyrid-3-yl)methyl)-2-(2-isopropylphenyl)piperazin-1-yl)-7-azaspiro[3.5]non-7-yl)-N-((7-(((4-fluorotetrahydro-2H-pyran-4-yl)methyl)amino)-6-nitrobenzo[d][1,3]dioxocyclopent-4-yl)sulfonyl)benzamide] | < 10 |
| CC(C)c1ccccc1[C@@H]1CCCN1C1CC2(CCN(c3cc(Oc4cnc5[nH]ccc5c4)c(C(=O)NS(=O)(=O)c4cc([N+](=O)[O-])c(NC[C@H]5COCCO5)c5c4OCO5)cc3F)CC2)C1 [compound 157, N-((7-((((S)-1,4-dioxan-2-yl)methyl)amino)-6-nitrobenzo[d][1,3]dioxocyclopent-4-yl)sulfonyl)-2-((1H-pyrrolo[2,3-b]pyrid-5-yl)oxy)-5-fluoro-4-(2-((S)-2-(2-isopropylphenyl)pyrrolidin-1-yl)-7-azaspiro[3.5]non-7-yl)benzamide] | < 10 |
| CC(=O)N1CCC(F)(CNc2c([N+](=O)[O-])cc(S(=O)(=O)NC(=O)c3cc(F)c(N4CCC5(CC4)CC(N4CCC[C@H]4c4ccccc4C(C)C)C5)cc3Oc3cnc4[nH]ccc4c3)c3nc[nH]c23)CC1 [compound 028, (S)-2-((1H-pyrrolo[2,3-b]pyrid-5-yl)oxy)-N-((7-(((1-acetyl-4-fluoropiperid-4-yl)methyl)amino)-6-nitro-1H-benzo[d]imidazol-4-yl)sulfonyl)-5-fluoro-4-(2-(2-(2-isopropylphenyl)pyrrolidin-1-yl)-7-azaspiro[3.5]non-7-yl)benzamide] | < 10 |
| COc1ccc(CN2CCN(C3CC4(CCN(c5cc(Oc6cnc7[nH]cc(F)c7c6)c(C(=O)NS(=O)(=O)c6ccc(NC[C@H]7CC[C@](C)(O)CC7)c([N+](=O)[O-])c6)cc5F)CC4)C3)C(c3ccccc3C(C)C)C2)cc1 (stereo partly shown) [compound 060, 5-fluoro-2-((3-fluoro-1H-pyrrolo[2,3-b]pyrid-5-yl)oxy)-N-((4-((((1r,4r)-4-hydroxy-4-methylcyclohexyl)methyl)amino)-3-nitrophenyl)sulfonyl)-4-(2-(2-(2-isopropylphenyl)-4-(4-methoxybenzyl)piperazin-1-yl)-7-azaspiro[3.5]non-7-yl)benzamide] | < 10 |
| COc1ccc(CN2CCN(C3CC4(CCN(c5cc(Oc6cnc7[nH]ccc7c6)c(C(=O)NS(=O)(=O)c6cc([N+](=O)[O-])c(NC[C@H]7CC[C@](C)(O)CC7)c7[nH]cnc67)cn5)CC4)C3)C(c3ccccc3C(C)C)C2)cc1 (stereo partly shown) [compound 067, 4-((1H-pyrrolo[2,3-b]pyrid-5-yl)oxy)-N-((7-((((1r,4r)-4-hydroxy-4-methylcyclohexyl)methyl)amino)-6-nitro-1H-benzo[d]imidazol-4-yl)sulfonyl)-6-(2-(2-(2-isopropylphenyl)-4-(4-methoxybenzyl)piperazin-1-yl)-7-azaspiro[3.5]non-7-yl) nicotinamide] | < 10 |
| CC(C)c1ccccc1[C@@H]1CCCN1C1CC2(CCN(c3ccc(C(=O)NS(=O)(=O)c4cc([N+](=O)[O-])c(NC[C@H]5CC[C@](C)(O)CC5)c5[nH]cnc45)c(N4CCCOc5nc6[nH]ccc6cc54)c3)CC2)C1 [compound 085, 2-(3,4-dihydro-2H-pyrrolo[3′,2′:5,6]pyridino[2,3-b][1,4]oxazacyclohept-1 (7H)-yl)-N-((7-((((1r,4r)-4-hydroxy-4-methylcyclohexyl)methyl)amino)-6-nitro-1H-benzo[d]imidazol-4-yl)sulfonyl)-4-(2-((S)-2-(2-isopropylphenyl)pyrrolidin-1-yl)-7-azaspiro[3.5]non-7-yl)benzamide] | < 10 |
| COc1cc(CN2CCN(C3CC4(CCN(c5ccc(C(=O)NS(=O)(=O)c6cc([N+](=O)[O-])c(NC[C@H]7CC[C@](C)(O)CC7)c7c6OCO7)c(Oc6cnc7[nH]ccc7c6)c5)CC4)C3)[C@H](c3ccccc3C(C)C)C2)ccc1C1CC1 [compound 179, 2-((1H-pyrrolo[2,3-b]pyrid-5-yl)oxy)-4-(2-((R)-4-(4-cyclopropyl-3-methoxybenzyl)-2-(2-isopropylphenyl)piperazin-1-yl)-7-azaspiro[3.5]non-7-yl)-N-((7-((((1r, 4r)-4-hydroxy-4-methylcyclohexyl)methyl)amino)-6-nitrobenzo[d][1,3]dioxocyclopent-4-yl)sulfonyl)benzamide] | < 10 |
| CC(C)c1ccccc1[C@@H]1CN(Cc2cnn(C(C)C)c2)CCN1C1CC2(CCN(c3cc(Oc4cnc5[nH]ccc5c4)c(C(=O)NS(=O)(=O)c4ccc(NCC5(F)CCOCC5)c([N+](=O)[O-])c4)cc3F)CC2)C1 [compound 210, (R)-2-((1H-pyrrolo[2,3-b]pyrid-5-yl)oxy)-5-fluoro-N-((4-(((4-fluorotetrahydro-2H-pyran-4-yl)methyl)amino)-3-nitrophenyl)sulfonyl)-4-(2-(4-((1-isopropyl-1H-pyrazol-4-yl)methyl)-2-(2-isopropylphenyl)piperazin-1-yl)-7-azaspiro[3.5]non-7-yl)benzamide] | < 10 |
| COc1ccc(CN2CCN(C3CC4(CCN(c5cc(Oc6cnc7[nH]ccc7c6)c(C(=O)NS(=O)(=O)c6ccc(NC[C@H]7CC[C@](C)(O)CC7)c([N+](=O)[O-])c6)cc5F)CC4)C3)[C@H](c3ccccc3C(C)C)C2)cc1OC [compound 221, 2-((1H-pyrrolo[2,3-b]pyrid-5-yl)oxy)-4-(2-((R)-4-(3,4-dimethoxybenzyl)-2-(2-isopropylphenyl)piperazin-1-yl)-7-azaspiro[3.5]non-7-yl)-5-fluoro-N-((4-((((1r, 4r)-4-hydroxy-4-methylcyclohexyl)methyl)amino)-3-nitrophenyl)sulfonyl)benzamide] | < 10 |
| COc1ccc(CN2CCN(C3CC4(CCN(c5ccc(C(=O)NS(=O)(=O)c6cc([N+](=O)[O-])c(NCC7(F)CCOCC7)c7c6OC(F)(F)O7)c(Oc6cnc7[nH]ccc7c6)c5)CC4)C3)[C@H](c3ccccc3C(C)C)C2)cc1 [compound 164, (R)-2-((1H-pyrrolo[2,3-b]pyrid-5-yl)oxy)-N-((2,2-difluoro-7-(((4-fluorotetrahydro-2H-pyran-4-yl)methyl)amino)-6-nitrobenzo[d][1,3]dioxocyclopent-4-yl)sulfonyl)-4-(2-(2-(2-isopropylphenyl)-4-(4-methoxybenzyl)piperazin-1-yl)-7-azaspiro[3.5]non-7-yl)benzamide] | < 10 |
| CC(C)c1ccccc1[C@@H]1CCCN1C1CC2(CCN(c3cc(Oc4cnc5[nH]ccc5c4)c(C(=O)NS(=O)(=O)c4cc([N+](=O)[O-])c(NCC5CCC(O)CC5)c5[nH]cnc45)cc3F)CC2)C1 (stereo partly shown) [compound 016] | < 10 |
| CC(C)c1ccccc1[C@@H]1CN(Cc2cnn(C(C)C)c2)CCN1C1CC2(CCN(c3cc(Oc4cnc5[nH]ccc5c4)c(C(=O)NS(=O)(=O)c4ccc(NC[C@H]5CC[C@](C)(O)CC5)c([N+](=O)[O-])c4)cc3F)CC2)C1 [compound 230, 2-((1H-pyrrolo[2,3-b]pyrid-5-yl)oxy)-5-fluoro-N-((4-((((1r, 4r)-4-hydroxy-4-methylcyclohexyl)methyl)amino)-3-nitrophenyl)sulfonyl)-4-(2-((R)-4-((1-isopropyl-1H-pyrazole-4-yl)methyl)-2-(2-isopropylphenyl)piperazin-1-yl)-7-azaspiro[3.5]non-7-yl)benzamide] | < 10 |
| COc1ccc(CN2CCN(C3CC4(CCN(c5cc(Oc6cnc7[nH]ccc7c6)c(C(=O)NS(=O)(=O)c6cc([N+](=O)[O-])c(NCC7(F)CCOCC7)c7n[nH]c(=O)cc67)cc5F)CC4)C3)[C@H](c3ccccc3C(C)C)C2)cc1 [compound 141, (R)-2-((1H-pyrrolo[2,3-b]pyrid-5-yl)oxy)-5-fluoro-N-((8-(((4-fluorotetrahydro-2H-pyran-4-yl)methyl)amino)-7-nitro-3-oxo-2,3-misoline-5-yl)sulfonyl)-4-(2-(2-(2-isopropylphenyl)-4-(4-methoxybenzyl)piperazin-1-yl)-7-azaspiro[3.5]non-7-yl)benzamide] | < 10 |
| COc1ccc(CN2CCN(C3CC4(CCN(c5cc(Oc6cnc7[nH]ccc7c6)c(C(=O)NS(=O)(=O)c6cc([N+](=O)[O-])c(NC[C@H]7CC[C@](C)(O)CC7)c7ocnc67)cc5F)CC4)C3)[C@H](c3ccccc3C(C)C)C2)cc1 [compound 114, 2-((1H-pyrrolo[2,3-b]pyrid-5-yl)oxy)-5-fluoro-N-((7-((((1r, 4r)-4-hydroxy-4-methylcyclohexyl)methyl)amino)-6-nitrobenzo[d]oxazol-4-yl)sulfonyl)-4-(2-((R)-2-(2-isopropylphenyl)-4-(4-methoxybenzyl)piperazin-1-yl)-7-azaspiro[3.5]non-7-yl)benzamide] | < 10 |
| COc1ccc(CN2CCN(C3CC4(CCN(c5ccc(C(=O)NS(=O)(=O)c6cc([N+](=O)[O-])c(NCC7(F)CCOCC7)c7c6OCO7)c(Oc6cnc7[nH]ccc7c6)c5)CC4)C3)[C@H](c3ccccc3C(C)C)C2)cn1 [compound 166, (R)-2-((1H-pyrrolo[2,3-b]pyrid-5-yl)oxy)-N-((7-(((4-fluorotetrahydro-2H-pyran-4-yl)methyl)amino)-6-nitrobenzo[d][1,3]dioxocyclopent-4-yl)sulfonyl)-4-(2-(2-(2-isopropylphenyl)-4-((6-methoxypyrid-3-yl)methyl)piperazin-1-yl)-7-azaspiro[3.5]non-7-yl)benzamide] | < 10 |
| CC(C)c1ccccc1[C@@H]1CCCN1C1CC2(CCN(c3cc(Oc4cnc5[nH]ccc5c4)c(C(=O)NS(=O)(=O)c4cc([N+](=O)[O-])c(NC[C@H]5CC[C@](C)(O)CC5)c5c4CCO5)cc3F)CC2)C1 [compound 100, 2-((1H-pyrrolo[2,3-b]pyrid-5-yl)oxy)-5-fluoro-N-((7-((((1r, 4r)-4-hydroxy-4-methylcyclohexyl)methyl)amino)-6-nitro-2,3-dihydrobenzofuran-4-yl)sulfonyl)-4-(2-((S)-2-(2-isopropylphenyl)pyrrolidin-1-yl)-7-azaspiro[3.5]non-7-yl)benzamide] | < 10 |
